{"source": "patent US12391683B2", "about": "“Therapeutic compounds and methods” (Actio Biosciences, Inc., priority 2022, dated 2025)", "key": {"TRPC6 channels": {"biological_target": "T1, TRPC6 channels (Homo sapiens, UniProt Q9Y210)", "T1 construct": "expressed in transfected cells; host or cells: HEK293", "T1 sequence (Q9Y210 1-931)": "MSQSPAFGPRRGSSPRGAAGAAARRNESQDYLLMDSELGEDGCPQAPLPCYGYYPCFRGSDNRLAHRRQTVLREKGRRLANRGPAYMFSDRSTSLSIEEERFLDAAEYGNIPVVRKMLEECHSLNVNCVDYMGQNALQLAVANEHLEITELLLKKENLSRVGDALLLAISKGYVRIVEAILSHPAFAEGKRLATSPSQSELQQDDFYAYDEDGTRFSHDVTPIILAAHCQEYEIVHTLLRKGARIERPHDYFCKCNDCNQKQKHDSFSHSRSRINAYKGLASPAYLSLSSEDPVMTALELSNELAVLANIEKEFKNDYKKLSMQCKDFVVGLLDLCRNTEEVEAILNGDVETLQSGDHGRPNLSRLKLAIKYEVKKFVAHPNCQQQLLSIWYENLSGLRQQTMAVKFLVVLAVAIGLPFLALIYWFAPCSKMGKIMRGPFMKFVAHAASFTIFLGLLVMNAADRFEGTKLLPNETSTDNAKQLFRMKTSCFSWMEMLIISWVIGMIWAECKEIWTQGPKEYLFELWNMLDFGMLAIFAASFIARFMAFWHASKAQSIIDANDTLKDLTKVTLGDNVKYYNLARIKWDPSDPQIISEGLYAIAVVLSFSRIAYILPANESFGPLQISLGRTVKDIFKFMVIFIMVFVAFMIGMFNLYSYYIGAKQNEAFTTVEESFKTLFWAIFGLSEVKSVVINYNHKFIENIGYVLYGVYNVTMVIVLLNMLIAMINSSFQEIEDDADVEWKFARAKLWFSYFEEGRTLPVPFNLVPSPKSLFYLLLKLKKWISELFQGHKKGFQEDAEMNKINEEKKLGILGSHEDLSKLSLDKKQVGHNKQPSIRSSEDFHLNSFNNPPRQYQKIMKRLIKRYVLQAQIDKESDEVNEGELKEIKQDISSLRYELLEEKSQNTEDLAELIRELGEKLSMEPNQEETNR", "assay": "TRP Family FLIPR Assay, TRPC6", "assay_type": "cell-based", "details": "HEK293 cells", "procedure": "(§1) The compound of Example 5 was tested for selectivity against a panel of Human TRP family ion channels in a TRP Family FLIPR Assay as described below. • 1. TRPC3 channels (human TRPC3 variant 1 gene, expressed in HEK293 cells). • 2. TRPC4 channels (human TRPC4 gene, expressed in HEK293 cells). • 3. TRPC5 channels (human TRPC5 gene, expressed in HEK293 cells). • 4. TRPC6 channels (human TRPC6 gene, expressed in HEK293 cells). • 5. TRPM2 channels (human TRPM2 gene, transiently expressed in HEK293 cells). • 6. TRPM3 channels (human TRPM3 gene, transiently expressed in HEK293 cells). • 7. TRPM4 channels (human TRPM4 gene, expressed in CHO cells). • 8. […]\n(§2) Data acquisition was performed via the FLIPR Control software supplied with the FLIPR System (MDS-AT) and data was analyzed using Microsoft Excel (Microsoft Corp., Redmond, WA) or GraphPad Prism. […]\n(§3) [formula] where Base is the response at low concentrations of test article, Max is the maximum response at high concentrations, xhalf the EC50, or IC50, the concentration of test article producing either half-maximal activation or inhibition, and rate is the Hill coefficient. […] No assumptions about the fit parameters was made; the fit parameters were determined by the algorithm.\n(§4) The effect of each test article was evaluated at eight (8) concentrations: 0.003, 0.01, 0.03, 0.1, 0.3, 1, 3 and 10 μM, n≤4 wells/concentration). […]"}, "TRPM2 channels": {"biological_target": "T2, TRPM2 channels (Homo sapiens, UniProt O94759)", "T2 construct": "expressed in transfected cells; host or cells: HEK293 (transient)", "T2 sequence (O94759 whole entry)": "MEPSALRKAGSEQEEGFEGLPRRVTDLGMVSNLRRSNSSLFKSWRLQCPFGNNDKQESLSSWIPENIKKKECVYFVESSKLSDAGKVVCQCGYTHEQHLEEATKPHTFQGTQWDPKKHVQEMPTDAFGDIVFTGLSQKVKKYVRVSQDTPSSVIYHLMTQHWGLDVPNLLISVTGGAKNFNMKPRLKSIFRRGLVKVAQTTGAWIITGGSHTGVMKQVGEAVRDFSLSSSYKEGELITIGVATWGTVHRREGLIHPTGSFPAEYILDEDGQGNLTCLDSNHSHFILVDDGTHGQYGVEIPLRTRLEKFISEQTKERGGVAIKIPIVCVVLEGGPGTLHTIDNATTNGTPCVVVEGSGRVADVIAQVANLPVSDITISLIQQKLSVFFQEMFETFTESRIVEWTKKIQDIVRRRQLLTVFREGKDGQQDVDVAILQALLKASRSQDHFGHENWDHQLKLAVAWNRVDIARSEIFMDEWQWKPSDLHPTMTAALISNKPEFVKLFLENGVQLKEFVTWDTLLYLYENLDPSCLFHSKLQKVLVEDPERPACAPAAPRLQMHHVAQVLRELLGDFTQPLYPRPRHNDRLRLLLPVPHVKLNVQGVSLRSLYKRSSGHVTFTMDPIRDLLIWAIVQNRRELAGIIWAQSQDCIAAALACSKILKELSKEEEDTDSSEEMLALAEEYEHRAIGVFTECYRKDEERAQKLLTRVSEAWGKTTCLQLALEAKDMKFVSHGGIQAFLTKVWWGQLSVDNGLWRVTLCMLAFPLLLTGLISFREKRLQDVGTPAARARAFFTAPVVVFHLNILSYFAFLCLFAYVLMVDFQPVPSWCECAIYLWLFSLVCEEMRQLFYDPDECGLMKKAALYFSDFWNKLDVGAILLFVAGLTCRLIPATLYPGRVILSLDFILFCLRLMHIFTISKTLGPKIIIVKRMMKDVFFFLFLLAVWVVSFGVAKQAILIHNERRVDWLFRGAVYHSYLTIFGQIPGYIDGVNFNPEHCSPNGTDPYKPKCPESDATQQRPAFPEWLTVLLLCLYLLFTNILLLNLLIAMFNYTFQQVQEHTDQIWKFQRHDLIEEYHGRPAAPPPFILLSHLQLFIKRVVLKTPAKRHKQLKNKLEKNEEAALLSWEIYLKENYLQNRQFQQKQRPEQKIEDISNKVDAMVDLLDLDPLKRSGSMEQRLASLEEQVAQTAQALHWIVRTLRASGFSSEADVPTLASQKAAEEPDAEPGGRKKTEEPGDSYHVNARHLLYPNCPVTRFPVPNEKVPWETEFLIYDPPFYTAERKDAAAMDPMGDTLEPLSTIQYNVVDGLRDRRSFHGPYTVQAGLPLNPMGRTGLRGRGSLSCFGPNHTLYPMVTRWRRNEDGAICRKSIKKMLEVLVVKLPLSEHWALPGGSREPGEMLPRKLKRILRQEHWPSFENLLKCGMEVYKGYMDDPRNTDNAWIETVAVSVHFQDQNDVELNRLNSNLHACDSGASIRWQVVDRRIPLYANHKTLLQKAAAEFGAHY", "assay": "TRP Family FLIPR Assay, TRPM2", "assay_type": "cell-based", "details": "HEK293 cells (transient)", "procedure": "as §1, §2, §3, §4"}, "TRPM4 channels": {"biological_target": "T3, TRPM4 channels (Homo sapiens, UniProt Q8TD43)", "T3 construct": "expressed in transfected cells; host or cells: CHO", "T3 sequence (Q8TD43 whole entry)": "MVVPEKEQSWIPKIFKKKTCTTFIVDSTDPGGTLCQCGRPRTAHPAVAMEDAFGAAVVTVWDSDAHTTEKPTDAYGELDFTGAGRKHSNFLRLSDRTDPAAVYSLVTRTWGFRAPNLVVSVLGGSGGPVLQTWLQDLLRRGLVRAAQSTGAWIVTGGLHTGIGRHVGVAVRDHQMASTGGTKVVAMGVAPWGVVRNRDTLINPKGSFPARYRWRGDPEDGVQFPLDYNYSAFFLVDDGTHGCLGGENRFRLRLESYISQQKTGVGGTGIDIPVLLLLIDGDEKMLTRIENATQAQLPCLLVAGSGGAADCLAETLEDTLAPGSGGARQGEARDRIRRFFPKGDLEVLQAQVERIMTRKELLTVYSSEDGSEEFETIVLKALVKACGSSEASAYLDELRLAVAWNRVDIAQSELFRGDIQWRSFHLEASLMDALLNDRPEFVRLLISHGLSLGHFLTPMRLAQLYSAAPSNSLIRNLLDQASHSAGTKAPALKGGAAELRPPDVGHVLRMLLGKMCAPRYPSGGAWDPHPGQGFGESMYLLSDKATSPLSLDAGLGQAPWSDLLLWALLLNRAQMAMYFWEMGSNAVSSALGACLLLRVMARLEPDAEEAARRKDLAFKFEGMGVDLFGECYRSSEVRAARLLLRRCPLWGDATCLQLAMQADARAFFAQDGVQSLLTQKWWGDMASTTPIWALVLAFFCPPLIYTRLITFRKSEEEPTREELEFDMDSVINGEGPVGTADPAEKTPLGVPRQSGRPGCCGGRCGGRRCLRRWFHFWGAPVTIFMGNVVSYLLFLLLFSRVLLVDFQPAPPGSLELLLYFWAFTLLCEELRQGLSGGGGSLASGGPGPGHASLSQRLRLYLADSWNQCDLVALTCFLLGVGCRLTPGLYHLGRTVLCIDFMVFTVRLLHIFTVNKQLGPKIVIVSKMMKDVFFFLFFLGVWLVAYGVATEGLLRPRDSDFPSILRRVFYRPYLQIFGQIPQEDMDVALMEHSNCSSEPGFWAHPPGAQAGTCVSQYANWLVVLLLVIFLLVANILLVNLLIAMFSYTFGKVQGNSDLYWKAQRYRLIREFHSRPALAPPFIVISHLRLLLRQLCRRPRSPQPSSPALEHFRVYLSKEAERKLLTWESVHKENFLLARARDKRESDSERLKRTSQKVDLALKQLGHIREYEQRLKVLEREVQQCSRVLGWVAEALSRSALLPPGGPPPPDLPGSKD", "assay": "TRP Family FLIPR Assay, TRPM4", "assay_type": "cell-based", "details": "CHO cells", "procedure": "as §1, §2, §3, §4"}, "Hepatocytes": {"tested_on": "Hepatocytes", "assay": "Hepatocytes predicted clearance, dog"}}, "note": "pEC50, pIC50: −log10 of the molar value.", "data": [{"smiles": "CC(C)(O)c1cnc(N2C[C@@]3(CC[C@@H](F)[C@](C)(Cn4cnc5ccc(C#N)cc54)C3)OC2=O)cn1", "note": "(single isomer, unassigned) [Example 5]", "values": [{"measurement": "pEC50", "setting": "TRPC6 channels; agonist mode, vs EMAX of Na-ATP 100 μM, read-out: EC50 hTRPC6", "result": "< 5.00"}, {"measurement": "pIC50", "setting": "TRPC6 channels; antagonist mode, activated with 10 μM Na-ATP, 0.003-10 μM, read-out: IC50 hTRPC6", "result": "< 5.00"}, {"measurement": "pEC50", "setting": "TRPM2 channels; agonist mode, vs EMAX of H2O2 333 μM, read-out: EC50 hTRPM2", "result": "< 5.00"}, {"measurement": "pIC50", "setting": "TRPM2 channels; antagonist mode, activated with 300 μM H2O2, 0.003-10 μM, read-out: IC50 hTRPM2", "result": "< 5.00"}, {"measurement": "pEC50", "setting": "TRPM4 channels; agonist mode, vs EMAX of A23187 3.3 μM, read-out: EC50 hTRMP4", "result": "< 5.00"}, {"measurement": "pIC50", "setting": "TRPM4 channels; antagonist mode, activated with A23187 10 μM, 0.003-10 μM, read-out: IC50 hTRMP4", "result": "< 5.00"}, {"measurement": "Hepatocytes predicted clearance in dog", "setting": "Hepatocytes", "result": 11, "unit": "mL/min/kg"}]}]}
